One experiment deals with female NOD mice. In words: i.p. glucose tolerance test (GTT) in FKGK18-treated NOD mice. The settings on record: for glucose tolerance vs PBS-T: glucose 2 g/kg i.p. Format: in vivo, mouse. As for the experimental part:
(§1) FIGS. 1A-1M show the effects of temporal FKGK18 regimen on T1D incidence and islet phenotype, wherein female NOD mice were administered FKGK18 (20 mg/kg, 3 × weekly) or vehicle (PBS-T) starting at 4 or 8 weeks of age. FIGS. 1A and 1B show diabetes incidence; blood glucose was monitored weekly in the 4-week (FIG. 1A; n = 17 and 15 for PBS-T and FKGK18 groups, respectively) and 8-week (FIG. 1B; n = 15 each in the PBS-T and FKGK18 groups) regimen groups for up to 30 weeks. Two consecutive readings of ≥ 275 mg/dL were recorded as onset of T1D (^†P < 0.05). FIGS. 1C-1F show glucose tolerance test (GTT) results, wherein overnight fasted mice were administered glucose (2 g/kg, i.p.), glucose levels in blood from tail vein were monitored over a 2-hour period, and AUC were generated. FIGS. 1C and 1D show four-week group at 14 weeks of age; n = 5 each in the PBS-T and FKGK18 groups. FIGS. 1E and 1F show eight-week group at 25 weeks of age; n = 7 and 5 for PBS-T and FKGK18 groups, respectively. FIGS. 1G-1I show phenotype parameters in the 8-week regimen group. […] FIGS. 1H and 1I show β Cell mass (PBS-T, n = 15; FKGK18, n = 14) (FIG. 1H) and circulating insulin (n = 15 in each group) (FIG. 1I) were determined at sacrifice (PBS-T, 14-30 weeks of age; FKGK18, 16-36 weeks of age). FIGS. 1J and 1K show islet infiltration; paraffin sections (10 µm) of pancreas were prepared and stained with H&E. Percent infiltration for each islet was calculated as the value of noninfiltrated area subtracted from total islet area (% infiltrate = 100 × [(total area - noninfiltrated area)/(total area)]) using ImageJ software. […]
FIGS. 2A-2E show the effects of FKGK18-withdrawal regimen on T1D incidence and glucose tolerance, wherein female NOD mice were administered FKGK18 (20 mg/kg, 3 × weekly, n = 18) or vehicle (PBS-T, n = 17) starting at 10 days of age and until 14 weeks of age. […] FIGS. 2B and 2D show glucose tolerance test (GTT) results, assessed at 14 (FIG. 2B) and 25 (FIG. 2D) weeks of age (data are presented as mean ± SEM), as described in FIG. 1. […]

A further experiment concerns the target T1, iPLA2β (Mus musculus, UniProt P97819).
T1 construct: from tissue; host or cells: whole animal: female NOD mice (wild-type Pla2g6), urine collected for PGE2 metabolites
T1 sequence (P97819 1-807): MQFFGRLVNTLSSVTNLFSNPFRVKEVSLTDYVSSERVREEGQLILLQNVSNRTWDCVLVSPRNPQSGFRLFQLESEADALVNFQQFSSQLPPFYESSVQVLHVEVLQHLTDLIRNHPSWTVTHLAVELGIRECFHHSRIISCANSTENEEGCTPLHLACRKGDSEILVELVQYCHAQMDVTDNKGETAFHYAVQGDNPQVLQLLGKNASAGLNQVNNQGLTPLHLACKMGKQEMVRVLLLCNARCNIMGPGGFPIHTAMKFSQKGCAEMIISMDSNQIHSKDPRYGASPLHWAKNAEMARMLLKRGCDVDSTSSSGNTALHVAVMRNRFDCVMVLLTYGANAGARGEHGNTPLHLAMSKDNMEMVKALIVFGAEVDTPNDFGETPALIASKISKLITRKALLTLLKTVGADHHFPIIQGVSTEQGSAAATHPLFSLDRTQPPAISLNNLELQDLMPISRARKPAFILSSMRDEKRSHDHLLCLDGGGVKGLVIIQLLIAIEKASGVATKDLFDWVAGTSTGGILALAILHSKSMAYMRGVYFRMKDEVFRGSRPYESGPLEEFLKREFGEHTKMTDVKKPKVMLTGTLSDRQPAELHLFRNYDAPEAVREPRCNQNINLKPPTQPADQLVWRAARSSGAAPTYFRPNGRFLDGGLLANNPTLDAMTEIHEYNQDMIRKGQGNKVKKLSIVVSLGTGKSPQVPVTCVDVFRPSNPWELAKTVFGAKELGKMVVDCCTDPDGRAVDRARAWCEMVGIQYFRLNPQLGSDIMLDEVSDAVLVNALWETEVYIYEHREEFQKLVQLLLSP
The experiment in a line: Urinary PGE2 metabolites (PGEM), reflecting in vivo inhibition of iPLA2β activity. The settings on record: 8-week regimen group; 18 weeks of age. The method, then: as §1, with “generated.” for “generated. FIGS. 1C and 1D show four-week group at 14 weeks of age; n = 5 each in the PBS-T and FKGK18 groups. FIGS. 1E and 1F show eight-week group at 25 weeks of age; n = 7 and 5 for PBS-T and FKGK18 groups, respectively. FIGS. 1G-1I show phenotype parameters in the 8-week regimen group.”

Regarding `O=C(CCCCc1ccc2ccccc2c1)C(F)(F)F` [FKGK18], the “glucose tolerance, PBS-T vs FKGK18-withdrawn group” value in the experiment on female NOD mice (FKGK18 from 10 days until 14 weeks of age, GTT at 14 and 25 weeks of age) is reported as “indistinguishable”. In addition, the “glucose tolerance vs PBS-T” value with female NOD mice (FKGK18 started at 4 weeks of age, GTT at 14 weeks of age) is “No differences”; in the experiment with female NOD mice (FKGK18 started at 8 weeks of age, GTT at 25 weeks of age), “No differences”. Besides, on iPLA2β, the “urinary PGE2 metabolites (PGEM) relative to vehicle-treated mice” value is listed as “reduced”.

(Values after US20230263826A1, “Compositions and Methods for Treatment and Prevention of Type 1 Diabetes” (The UAB Research Foundation, priority 2021, published 2023).)
